This passage reports IC50 results from patent publication US20240368173A1, “TRICYCLIC GPR65 MODULATORS” (PATHIOS THERAPEUTICS LIMITED, priority 2021, published 2024).

In one assay the target is human recombinant GPR65 (Homo sapiens, UniProt Q8IYL9). The assay is described as follows: Human GPR65 cAMP HTRF antagonist assay. It is filed as cell-based.
human recombinant GPR65, sequence (Q8IYL9 whole entry): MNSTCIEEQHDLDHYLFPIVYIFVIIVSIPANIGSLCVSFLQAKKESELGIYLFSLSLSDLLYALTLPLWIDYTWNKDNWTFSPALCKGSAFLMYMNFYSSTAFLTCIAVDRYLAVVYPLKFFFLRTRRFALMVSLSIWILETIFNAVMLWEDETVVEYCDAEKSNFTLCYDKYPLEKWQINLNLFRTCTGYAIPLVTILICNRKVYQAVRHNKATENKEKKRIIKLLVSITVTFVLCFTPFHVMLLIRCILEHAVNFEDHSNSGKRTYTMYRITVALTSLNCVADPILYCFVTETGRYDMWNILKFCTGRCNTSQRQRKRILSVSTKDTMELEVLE
Conditions: not given
The text has this:
In one preferred embodiment, the compound prevents the increase in cytoplasmic cAMP levels expected following GPR65 activation at acidic pH. This prevention of cAMP accumulation in turn prevents downstream signalling through ICER, as described above. The “Human GPR65 cyclic adenosine monophosphate (cAMP) Homogeneous Time Resolved Fluorescence (HTRF) antagonist assay”, or simply “cAMP assay”, as described in the accompanying examples, can be used to measure the potency of GPR65 modulators, which is expressed as the concentration of compound required to reduce the increase in cAMP concentration upon GPR65 activation by 50% (i.e. an IC50).
Human GPR65 Cyclic Adenosine Monophosphate (cAMP) Homogeneous Time Resolved Fluorescence (HTRF) Antagonist Assay Procedure
IC50 data was obtained by the following procedure:
1321N1 human astrocytoma cells stably expressing human recombinant GPR65 (1321N1-hrGPR65 cells, EuroscreenFast) were cultured according to the vendor's instructions.
Compounds were tested for their ability to antagonise GPR65, through measuring the concentration of cytoplasmic cAMP following treatment of the cells at a pH of 7.2 to activate GPR65 signalling and addition of the compound to be tested. The extent to which the expected rise in cAMP concentration upon GPR65 activation was suppressed by the added compound is indicative of its potency. The assay was carried out according to EuroscreenFast assay Methodology as follows.
On the day of the assay, test compounds were added to 384-well, low volume, white microtiter plates by acoustic dispensing. KRH buffer (5 mM KCl, 1.25 mM MgSO4, 124 mM NaCl, 25 mM HEPES, 13.3 mM Glucose, 1.25 mM KH2PO4 and 1.45 mM CaCl2) was adjusted to pH 6.5, pH 7.6 and pH 8.4 by adding NaOH. 1321N1-hGPR65 cells were rapidly thawed and diluted in KRH, pH 7.6 prior to centrifugation at 300×g for 5 min and resuspension in assay buffer (KRH, pH 7.6, supplemented with 1 mM 3-isobutyl-1-methylxanthine (IBMX) and 200 μM ethylenediaminetetraacetic acid (EDTA)). Cells were added to assay plates at a density of 2,000 cells per well in a volume of 5 μl. Assay plates were briefly centrifuged at 100×g and then incubated at room temperature for 30 min. Cells were stimulated by the addition of 5 μL KRH, pH 6.5, to achieve an assay pH of 7.2, while control wells received 5 μl KRH, pH 8.4 to achieve an assay pH of 7.9. Assay plates were briefly centrifuged at 100×g and then incubated at room temperature for 30 min.
Accumulation of cAMP was detected by cAMP HTRF kit (Cisbio). d2-labeled cAMP and cryptate-labeled anti-cAMP antibody in Lysis and Detection Buffer (Cisbio) were added to assay plates, and the plates were incubated at room temperature for 1 h. HTRF measurements were performed using a Pherastar FSX instrument. Acceptor and donor emission signals were measured at 665 nm and 620 nm, respectively, and HTRF ratios were calculated as signal665 nm/signal620 nm×10^4. Data were normalised to high and low control values and fitted with 4-parameter logistic regression to determine hGPR65 IC50 values for the test compounds, which are shown in Table 1.
(TR-FRET usually uses a lanthanide donor and a delayed reading to cut background.)
Usually IC50 stands for the concentration needed to halve the response being measured. Turning to `O=C(Nc1cc(Cl)c(Br)cc1F)N1[C@H]2CC[C@@H]1c1c[nH]c(=O)nc1C2` [Compound 23, (5R,8S)-N-(4-Bromo-5-chloro-2-fluorophenyl)-2-oxo-3,5,6,7,8,9-hexahydro-2H-5,8-epiminocyclohepta[d]pyrimidine-10-carboxamide], the IC50 is < 500 nM.
The same measure, in the same setting: for `O=C(Nc1cc(Cl)c(C(F)(F)F)cc1F)N1[C@H]2CC[C@@H]1c1c[nH]c(=O)nc1C2` [Compound 24, (5R,8S)-N-(5-Chloro-2-fluoro-4-(trifluoromethyl)phenyl)-2-oxo-3,5,6,7,8,9-hexahydro-2H-5,8-epiminocyclohepta[d]pyrimidine-10-carboxamide] the value was < 500 nM; for `O=C(Nc1cc(Br)c(Cl)cc1F)N1[C@H]2CC[C@@H]1c1c[nH]c(=O)nc1C2` [Compound 26, (5R,8S)-N-(5-Bromo-4-chloro-2-fluorophenyl)-2-oxo-3,5,6,7,8,9-hexahydro-2H-5,8-epiminocyclohepta[d]pyrimidine-10-carboxamide], < 500 nM.
For the compound `O=C(Nc1cc(Br)c(C(F)(F)F)cc1F)N1[C@H]2CC[C@@H]1c1c[nH]c(=O)nc1C2` [Compound 28, (5R,8S)-N-(5-Bromo-2-fluoro-4-(trifluoromethyl)phenyl)-2-oxo-3,5,6,7,8,9-hexahydro-2H-5,8-epiminocyclohepta[d]pyrimidine-10-carboxamide], the IC50 is < 500 nM.
Still for that read-out and setting: with `O=C(Nc1ccc(C(F)(F)F)c(Br)c1)N1[C@@H]2CC[C@H]1c1n[nH]c(=O)cc1C2` [Compound 30, (6R,9S)-N-(3-Bromo-4-(trifluoromethyl)phenyl)-3-oxo-3,5,6,7,8,9-hexahydro-2H-6,9-epiminocyclohepta[c]pyridazine-10-carboxamide] the figure was > 5000 nM.
Regarding `O=C(Nc1ccc(C(F)(F)F)c(Br)c1)N1[C@H]2CC[C@@H]1c1n[nH]c(=O)cc1C2` [Compound 31, (6S,9R)-N-(3-Bromo-4-(trifluoromethyl)phenyl)-3-oxo-3,5,6,7,8,9-hexahydro-2H-6,9-epiminocyclohepta[c]pyridazine-10-carboxamide], the IC50 was < 500 nM.
On to `O=C(Nc1cc(Cl)c(Br)cc1F)N1[C@H]2CC[C@@H]1c1n[nH]c(=O)cc1C2` [Compound 32, (6S,9R)-N-(4-Bromo-5-chloro-2-fluorophenyl)-3-oxo-3,5,6,7,8,9-hexahydro-2H-6,9-epiminocyclohepta[c]pyridazine-10-carboxamide], for which the IC50 was < 500 nM.
The same measure, in the same setting: for `O=C(Nc1cc(Br)c(C(F)(F)F)cc1F)N1[C@H]2CC[C@@H]1c1n[nH]c(=O)cc1C2` [Compound 35, (6S,9R)-N-(5-Bromo-2-fluoro-4-(trifluoromethyl)phenyl)-3-oxo-3,5,6,7,8,9-hexahydro-2H-6,9-epiminocyclohepta[c]pyridazine-10-carboxamide] the value was < 500 nM; for `O=C(Nc1cc(Br)c(Cl)cc1F)N1[C@H]2CC[C@@H]1c1n[nH]c(=O)cc1C2` [Compound 37, (6S,9R)-N-(5-Bromo-4-chloro-2-fluorophenyl)-3-oxo-3,5,6,7,8,9-hexahydro-2H-6,9-epiminocyclohepta[c]pyridazine-10-carboxamide], < 500 nM.
Same read-out and setting: with `O=C(Nc1cc(Br)c(Cl)cc1F)N1[C@@H]2CC[C@H]1c1n[nH]c(=O)cc1C2` [Compound 38, (6R,9S)-N-(5-Bromo-4-chloro-2-fluorophenyl)-3-oxo-3,5,6,7,8,9-hexahydro-2H-6,9-epiminocyclohepta[c]pyridazine-10-carboxamide] the figure was 500 to 5000 nM.
Still for that read-out and setting: for `O=C(Nc1ccc(Br)c(Cl)c1)N1[C@H]2CC[C@@H]1c1n[nH]c(=O)cc1C2` [Compound 39, (6S,9R)-N-(4-Bromo-3-chlorophenyl)-3-oxo-3,5,6,7,8,9-hexahydro-2H-6,9-epiminocyclohepta[c]pyridazine-10-carboxamide] the value was < 500 nM; for `N#Cc1cc(NC(=O)N2[C@H]3CC[C@@H]2c2n[nH]c(=O)cc2C3)ccc1C(F)(F)F` [Compound 41, (6S,9R)-N-(3-Cyano-4-(trifluoromethyl)phenyl)-3-oxo-3,5,6,7,8,9-hexahydro-2H-6,9-epiminocyclohepta[c]pyridazine-10-carboxamide], < 500 nM.
Consider `O=C(Nc1cc(Cl)c(C2CC2)cc1F)N1[C@H]2CC[C@@H]1c1n[nH]c(=O)cc1C2` [Compound 42, (6S,9R)-N-(5-Chloro-4-cyclopropyl-2-fluorophenyl)-3-oxo-3,5,6,7,8,9-hexahydro-2H-6,9-epiminocyclohepta[c]pyridazine-10-carboxamide], for which the IC50 was < 500 nM.
Same read-out and setting: for `O=C(Nc1ccc(OC(F)(F)F)c(Cl)c1)N1[C@H]2CC[C@@H]1c1n[nH]c(=O)cc1C2` [Compound 46, (6S,9R)-N-(3-Chloro-4-(trifluoromethoxy)phenyl)-3-oxo-3,5,6,7,8,9-hexahydro-2H-6,9-epiminocyclohepta[c]pyridazine-10-carboxamide] the value was < 500 nM.

The assay is the same for the next values; noted with them: 1321N1-hrGPR65 cells, cAMP HTRF, assay pH 7.2; read-out: hGPR65 IC50 (Activity of selected compounds according to the invention).
Turning to `O=C(Nc1cc(Cl)c(C(F)(F)F)cc1F)N1[C@@H]2CC[C@H]1c1c[nH]c(=O)nc1C2` [Compound 25, (5S,8R)-N-(5-Chloro-2-fluoro-4-(trifluoromethyl)phenyl)-2-oxo-3,5,6,7,8,9-hexahydro-2H-5,8-epiminocyclohepta[d]pyrimidine-10-carboxamide], the IC50 was 500 to 5000 nM.
The same measure, in the same setting: with `O=C(Nc1cc(Br)c(Cl)cc1F)N1[C@@H]2CC[C@H]1c1c[nH]c(=O)nc1C2` [Compound 27, (5S,8R)-N-(5-Bromo-4-chloro-2-fluorophenyl)-2-oxo-3,5,6,7,8,9-hexahydro-2H-5,8-epiminocyclohepta[d]pyrimidine-10-carboxamide] the figure was 500 to 5000 nM; with `O=C(Nc1cc(Br)c(C(F)(F)F)cc1F)N1[C@@H]2CC[C@H]1c1c[nH]c(=O)nc1C2` [Compound 29, (5S,8R)-N-(5-Bromo-2-fluoro-4-(trifluoromethyl)phenyl)-2-oxo-3,5,6,7,8,9-hexahydro-2H-5,8-epiminocyclohepta[d]pyrimidine-10-carboxamide], > 5000 nM; with `O=C(Nc1cc(Cl)c(Br)cc1F)N1[C@@H]2CC[C@H]1c1n[nH]c(=O)cc1C2` [Compound 33, (6R,9S)-N-(4-Bromo-5-chloro-2-fluorophenyl)-3-oxo-3,5,6,7,8,9-hexahydro-2H-6,9-epiminocyclohepta[c]pyridazine-10-carboxamide], > 5000 nM.
`O=C(Nc1cc(Br)c(C(F)(F)F)cc1F)N1[C@@H]2CC[C@H]1c1n[nH]c(=O)cc1C2` [Compound 34, (6R,9S)-N-(5-Bromo-2-fluoro-4-(trifluoromethyl)phenyl)-3-oxo-3,5,6,7,8,9-hexahydro-2H-6,9-epiminocyclohepta[c]pyridazine-10-carboxamide]: the IC50 is > 5000 nM.
Same read-out and setting: for `O=C(Nc1ccc(Br)c(Cl)c1)N1[C@@H]2CC[C@H]1c1n[nH]c(=O)cc1C2` [Compound 40, (6R,9S)-N-(4-Bromo-3-chlorophenyl)-3-oxo-3,5,6,7,8,9-hexahydro-2H-6,9-epiminocyclohepta[c]pyridazine-10-carboxamide] the value was > 5000 nM; for `O=C(Nc1ccc(OC(F)(F)F)c(Cl)c1)N1[C@@H]2CC[C@H]1c1n[nH]c(=O)cc1C2` [Compound 45, (6R,9S)-N-(3-Chloro-4-(trifluoromethoxy)phenyl)-3-oxo-3,5,6,7,8,9-hexahydro-2H-6,9-epiminocyclohepta[c]pyridazine-10-carboxamide], > 5000 nM.
